Laboratory results reported in US12275685B2, “Oligo-benzamide analogs and their use in cancer treatment” (Board of Regents, The University of Texas System, priority 2018, dated 2025).
“Also recorded” adds a separate entry of the source.

What was measured:
[1] = test system: SUM-159 cells with LIPA KO; test: Live cell imaging of SUM-159 with LIPA KO; format: cell-based; conditions: 1 μM
Excerpt: (§1) FIGS. 37A-J: The molecular target of ERX-41 in TNBC is LIPA. […] (FIG. 37B) Knockout clones of LIPA, ACACA, TMEM208, SOAT1 and ARID1A were generated in MDA-MB-231 cells and evaluated for response to ERX-41 using doseresponse curves using CellTiter-Glo assays in vitro. (FIGS. 37C-D) Effect of knockout of LIPA in SUM-159 (FIG. 37C) and MDA-MB436 (FIG. 37D) on dose response curve to ERX-41 using CellTiter-Glo assays in vitro. (FIGS. 37E-F) Dose response curves of SUM-159 parental cells and clones with LIPA KO to thapsigargin (FIG. 37E) and paclitaxel (FIG. 37F). (FIGS. 37G-H) Live cell imaging studies with SYTOX Green to examine ability of 1 μM ERX-41 to induce cell death in parental SUM-159 and SUM-159 clones with LIPA KO, with quantitation (FIG. 37G) and time-lapsed photomicrographs at 0 h and 30 h ((FIG. 37H). (FIGS. 37I-J) SCID mice were implanted with either parental SUM-159 or SUM-159 clones with LIPA KO (n=6, each group) and tumors were allowed to establish (150 mm^3). Following daily intraperitoneal administration of 10 mg/kg ERX-41, tumor sizes were measured and graphed (FIG. 37I), along with mice body weights (FIG. 37J). *p<0.05. **p<0.01; ***p<0.001.
(§2) The molecular target of ERX-41 in TNBC is LIPA. […] Knockout clones of LIPA, SLC5A3, SMAP2, TMEM208, SOAT1 and ARID1A were generated in multiple TNBC cells and evaluated for response to ERX-41.

[2] = test system: TNBC cells; test: De novo protein synthesis, puromycin labeled nascent proteins; format: cell-based; conditions: 4 h and 16 h
Excerpt: Total protein is shown on right with coomassie blue staining.
(§3) The basal level of expression of endoplasmic reticulum stress and unfolded protein response correlates with TK41 activity (FIG. 28). Modulation of the level of these stress proteins affects the activity of TK41. Thus, the basal level of expression of endoplasmic reticulum stress and unfolded protein response proteins may serve as a biomarker to predict response to TK41. […] Without wishing to be bound by any particular theory, the mechanism of action of TK41 may operate comprise targeting either ER or TLX and inducing endoplasmic reticulum stress, subsequent apoptosis, and blocking autophagic fusion (FIG. 30).

[3] = test system: TNBC PDX tumors; test: TNBC patient derived xenografts (PDX); format: in vivo, mice; conditions: 10 mg/kg/day oral
Protocol: FIGS. 7A-7C show effect of TK41 in triple negative breast cancer in patient derived xenografts. TNBC patient derived xenografts (n=6) were established in nude mice and treated with vehicle (circle markers) or 10 mg/kg/day/oral ERX-41 (i.e., TK41; square markers).
FIGS. 32A-C show established breast PDX tumors treated either with vehicle (circles) or ERX-41 (squares). Tumor volume is graphed (left), distribution of tumor weights at necropsy (middle panel). *p<0.05; […].
FIGS. 35A-P: ERX-41 is potent against TNBC in vivo. (FIG. 35A) Following establishment of subcutaneous MDA-MB-231 xenograft tumors (200 mm^3), 10 mg/kg single dose ERX-41 was administered either by oral or intraperitoneal route. The tumor was harvested 0, 0, 5, 1, 5, 3, 6 and 24 h after drug administration and the drug levels assayed by LC-MS/MS and graphed. (FIGS. 35B-E) Following establishment of MDA-MB-231 xenografts in mammary fat pad in vivo (100 mm^3 size), daily administration of 10 mg/kg ERX-41 or vehicle control (N=8 each group) was initiated. Tumor volumes were measured using digital calipers and graphed (FIG. 35B). Tumor weights (FIG. 35C), body weights (FIG. 35D) and extirpated tumors (FIG. 35E) at end of study are also shown. […] Tumor volumes were measured using digital calipers and graphed (FIG. 35F) along with tumor weights (FIG. 35G) and body weights (FIG. 35H). […]

[4] = test system: pancreatic cancer MiaPaca cells; test: ER stress in pancreatic cancer cells by electron microscopy; format: cell-based
Excerpt: as §3

[5] = test system: parental SUM-159 xenografts; test: Parental SUM-159 xenografts; format: in vivo, SCID mice; conditions: 10 mg/kg daily
Excerpt: as §1, §2

[6] = test system: normal human mammary epithelial cells (HMEC); test: WST, MTT or CellTiter-Glo assays in HMEC; format: cell-based; conditions: at >1 μM
Excerpt: (§4) FIGS. 34A-C: Dose response curve of ERX-41 in multiple TNBC. cell lines using WST-1 assays (FIG. 34A) and CellTiter-Glo assays (FIG. 34B). […] Quantification of the number of dead cells over time seen with live cell imaging in MDAMB-231 and HMEC cells is shown.
(§5) To evaluate the generalizability of the inventors' findings, they evaluated ERX-41 in a large number of TNBC and ERa-positive cell lines.

[7] = test system: 22 human preclinical TNBC cell line models; test: CellTiter-Glo cell viability assay in TNBC cell lines; format: cell-based; conditions: 22 TNBC cell lines, read-out: IC50, CellTiter-Glo cell viability assays
Excerpt: as §4, §5

`CC(C)COc1cc(C(=O)Nc2ccc(C(=O)N[C@H]3CC[C@H](C)CC3)cc2OCC(C)C)ccc1NC(=O)c1ccc([N+](=O)[O-])c(OCCO)c1` [TK41] was tested, and the “cell death after KO of LIPA” value [1] was “dramatic decrease in cell death”, the “de novo protein synthesis” value [2] was “shuts down de novo protein synthesis” and the “de novo protein synthesis” value ([2]; listed as TK-41) was “decreases global new protein synthesis”. For the same compound, the “growth of TNBC PDX tumors” value [3] was “significantly decreased the growth”, the “growth of TNBC PDX tumors” value ([3]; listed as ERX-41) was “significantly decreased the rates of growth; also recorded: has activity against TNBC PDX tumors” and the “induction of endoplasmic reticulum stress in MiaPaca” value [4] was “Endoplasmic reticulum stress was also induced”. The “response of parental SUM-159 xenografts” value [5] was “responded significantly”, the “effect against HMEC” value [6] was “did not have significant effect” and the IC50 [7] was less than 250 nM.
